The NIST ThermoML archive (doi:10.1021/je050089u)

Experiment: excess molar enthalpy (molar enthalpy of mixing); xn = mol fraction of the nth substance listed
Details: Fluid (supercritical or subcritical phases)

COC(=O)OC [dimethyl carbonate] + O=C=O
excess molar enthalpy [kcal/mol]
Details	298.15 K	303.15 K
5000 kPa, x2 = 0.0793	-0.207	-0.237
5000 kPa, x2 = 0.1538	-0.427	-0.446
5000 kPa, x2 = 0.224	-0.636	-0.641
5000 kPa, x2 = 0.2902	-0.832	-0.833
5000 kPa, x2 = 0.3528	-1.02	-1.01
5000 kPa, x2 = 0.4121	-1.15	-1.19
5000 kPa, x2 = 0.4683	-1.33	-1.33
5000 kPa, x2 = 0.5216	-1.48	-1.48
5000 kPa, x2 = 0.5723	-1.59	-1.6
5000 kPa, x2 = 0.6206	-1.71	-1.71
5000 kPa, x2 = 0.6666	-1.82	-1.83
5000 kPa, x2 = 0.7104	-1.92	-1.93
5000 kPa, x2 = 0.7523	-1.99	-2.01
5000 kPa, x2 = 0.7686	–	-2.04
5000 kPa, x2 = 0.7766	–	-2.04
5000 kPa, x2 = 0.7924	-2.07	–
5000 kPa, x2 = 0.8307	-2.13	-1.48
5000 kPa, x2 = 0.8382	-2.09	–
5000 kPa, x2 = 0.8674	-1.69	-1.15
5000 kPa, x2 = 0.9026	-1.26	-0.913
5000 kPa, x2 = 0.9364	-0.785	-0.571
5000 kPa, x2 = 0.9688	-0.384	-0.254
5000 kPa, x2 = 0.9969	0.0153	–
5500 kPa, x2 = 0.0798	–	-0.214
5500 kPa, x2 = 0.1548	-0.4	-0.438
5500 kPa, x2 = 0.2253	-0.618	-0.619
5500 kPa, x2 = 0.2918	-0.794	-0.798
5500 kPa, x2 = 0.3546	-0.967	-0.989
5500 kPa, x2 = 0.4139	-1.12	-1.15
5500 kPa, x2 = 0.4702	-1.27	-1.3
5500 kPa, x2 = 0.5235	-1.4	-1.41
5500 kPa, x2 = 0.5742	-1.52	-1.54
5500 kPa, x2 = 0.6223	-1.61	-1.64
5500 kPa, x2 = 0.6682	-1.73	-1.75
5500 kPa, x2 = 0.712	-1.82	-1.85
5500 kPa, x2 = 0.7537	-1.91	-1.92
5500 kPa, x2 = 0.7936	-1.98	-1.98
5500 kPa, x2 = 0.8318	-2.02	-2.02
5500 kPa, x2 = 0.8392	–	-2.01
5500 kPa, x2 = 0.8466	–	-1.89
5500 kPa, x2 = 0.8683	-2.04	-1.62
5500 kPa, x2 = 0.9033	-2.03	-1.18
5500 kPa, x2 = 0.9368	-1.51	-0.733
5500 kPa, x2 = 0.9691	-0.767	-0.331
6000 kPa, x2 = 0.0803	–	-0.202
6000 kPa, x2 = 0.1557	-0.389	-0.41
6000 kPa, x2 = 0.2265	-0.558	-0.6
6000 kPa, x2 = 0.2932	-0.797	-0.78
6000 kPa, x2 = 0.3561	-0.905	-0.923
6000 kPa, x2 = 0.4156	-1.04	-1.1
6000 kPa, x2 = 0.4718	-1.19	-1.23
6000 kPa, x2 = 0.5252	-1.29	-1.36
6000 kPa, x2 = 0.5758	-1.4	-1.47
6000 kPa, x2 = 0.6239	-1.52	-1.58
6000 kPa, x2 = 0.6697	-1.62	-1.67
6000 kPa, x2 = 0.7134	-1.69	-1.76
6000 kPa, x2 = 0.755	-1.73	-1.82
6000 kPa, x2 = 0.7947	-1.8	–
6000 kPa, x2 = 0.8327	-1.85	–
6000 kPa, x2 = 0.8691	-1.87	–
6000 kPa, x2 = 0.9039	-1.89	–
6000 kPa, x2 = 0.9502	-1.86	–
6000 kPa, x2 = 0.9693	-1.78	–
6000 kPa, x2 = 0.9817	-0.864	–
